Laboratory results as given in BigSolDB 2.1.

CNc1nc(C)nc(OC)n1
solubility (mole fraction)
Conditions	278.15 K	283.15 K	288.15 K	293.15 K	298.15 K	303.15 K	308.15 K	313.15 K	318.15 K	323.15 K
in DMF	0.199	0.221	0.245	0.269	0.298	0.324	0.357	0.386	0.416	0.456
in ethanol	0.0496	0.057	0.0655	0.0737	0.0818	0.0914	0.101	0.111	0.123	0.136
in ethylene glycol	0.0208	0.0236	0.0273	0.0309	0.0349	0.039	0.0437	0.0483	0.0534	0.0597
in methanol	0.0666	0.0766	0.0874	0.0983	0.11	0.123	0.138	0.152	0.168	0.185
in water	2.58e-06	3.05e-06	3.53e-06	4.12e-06	4.73e-06	5.33e-06	5.99e-06	6.71e-06	7.57e-06	8.49e-06
